Experimental data published in patent US9234018B2, “Compositions and methods for the treatment of VprBP-related cancers” (University of Southern California, priority 2013, dated 2016).

Tests used:
AKT3 = AKT3 (Homo sapiens, UniProt Q9Y243); assay: Kinase selectivity panel; format: biochemical
AURKB = AURKB (Homo sapiens, UniProt Q96GD4); assay: Kinase selectivity panel; format: biochemical
CDK2 = CDK2 (Homo sapiens, UniProt P24941); assay: Kinase selectivity panel; format: biochemical
CHK2 = CHK2 (Homo sapiens, UniProt O96017); assay: Kinase selectivity panel; format: biochemical
CSK1E = CSK1E (Homo sapiens, UniProt P49674); assay: Kinase selectivity panel; format: biochemical
EEF2K = EEF2K (Homo sapiens, UniProt O00418); assay: Kinase selectivity panel; format: biochemical
PRKCD = PRKCD (Homo sapiens, UniProt Q05655); assay: Kinase selectivity panel; format: biochemical
PLK2 = PLK2 (Homo sapiens, UniProt Q9NYY3); assay: Kinase selectivity panel; format: biochemical
RSK2 = RSK2 (Homo sapiens, UniProt P51812); assay: Kinase selectivity panel; format: biochemical
STK25 = STK25 (Homo sapiens, UniProt O00506); assay: Kinase selectivity panel; format: biochemical
STK33 = STK33 (Homo sapiens, UniProt Q9BYT3); assay: Kinase selectivity panel; format: biochemical
DU145 cells = assay: Cell proliferation (MTT) and soft agar colony formation; format: cell-based, human; conditions: MTT 72 h and soft agar colonies
Method: Cell proliferation was assessed by the 3-(4,5-dimethylthiazol-2-yl)-2,5-diphenyltetrazolium bromide (MTT) assay as previously described (Kim, K. et al. (2012) Mol. Cell Biol. 32:783-796). To evaluate IC50 of compound B32B3 and B20H6, DU145 cells were treated with various concentrations (0.001, 0.005, 0.01, 0.05, 0.1, 1, 5, 10, and 20 μM) of compounds for 72 h and viability was measured by MTT assays. For soft agar colony formation assays, DU145 cells were treated with B32B3 (0.5, 1, and 3 μM). Cells were suspended in semisolid medium (DMEM 10% FBS plus 0.3% ultra pure noble agar) at concentrations of 2×10^5 cells/ml, added over a layer of 0.6% agar in RPMI on 35 mm plate and incubated for an additional 21 days. The colonies in each well were stained with 0.005% crystal violet in 20% ethanol, counted and photographed. All assays were run in triplicate, and results presented are the average of three individual experiments.

[1] = tested on: VprBP target genes in DU145 cells; assay: qRT-PCR of VprBP target genes; format: cell-based, human; conditions: B32B3 1 mM
Method: Total RNA was isolated from mock- or VprBP-depleted cells using the TRIzol reagent according to the manufacturer's instructions (Invitrogen). Gene expression microarray experiments were conducted using a whole-genome expression array (Human HT-12 v4 Expression BeadChip, Illumina). This high density oligonucleotide array chip targets more than 47000 probe sequences derived from National Center for Biotechnology Information Reference Sequence (NCBI) RefSeq Release 38 (Nov. 7, 2009) and other sources. Data were processed and analyzed by the ArrayPipe software (www.pathogenomics.ca/arraypipe). For qRT-PCR, total RNA was extracted as described for microarray and subjected to RT reactions with the use of PerfeCta® SYBR Green FastMix (Quanta BIOSCIENCES) and an iCycler IQ5 real time cycler (Bio-Rad). The specificity of the amplification reactions were monitored by melting curve analysis. Assays were normalized to β-actin mRNA levels. The following primers were used for qRT-PCR: […]

EEF2K, sequence (O00418 whole entry): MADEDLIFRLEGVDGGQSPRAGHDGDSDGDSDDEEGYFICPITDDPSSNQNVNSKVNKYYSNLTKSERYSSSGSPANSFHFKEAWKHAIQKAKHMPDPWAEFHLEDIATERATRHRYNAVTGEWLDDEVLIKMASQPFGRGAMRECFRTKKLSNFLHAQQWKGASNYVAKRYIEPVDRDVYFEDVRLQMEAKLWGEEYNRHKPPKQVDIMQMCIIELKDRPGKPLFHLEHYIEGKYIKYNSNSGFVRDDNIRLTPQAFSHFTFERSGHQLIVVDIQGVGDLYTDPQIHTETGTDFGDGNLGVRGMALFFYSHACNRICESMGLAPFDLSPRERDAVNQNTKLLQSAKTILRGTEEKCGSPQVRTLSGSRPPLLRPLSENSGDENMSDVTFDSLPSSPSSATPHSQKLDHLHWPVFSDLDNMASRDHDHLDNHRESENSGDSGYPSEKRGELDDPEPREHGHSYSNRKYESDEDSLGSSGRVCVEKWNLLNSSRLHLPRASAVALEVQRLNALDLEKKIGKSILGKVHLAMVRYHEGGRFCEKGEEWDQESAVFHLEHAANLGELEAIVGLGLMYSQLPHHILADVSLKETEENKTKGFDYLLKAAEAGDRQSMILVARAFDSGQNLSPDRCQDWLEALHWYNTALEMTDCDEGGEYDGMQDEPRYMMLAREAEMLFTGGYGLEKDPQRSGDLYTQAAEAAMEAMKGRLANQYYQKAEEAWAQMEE
PRKCD, sequence (Q05655 whole entry): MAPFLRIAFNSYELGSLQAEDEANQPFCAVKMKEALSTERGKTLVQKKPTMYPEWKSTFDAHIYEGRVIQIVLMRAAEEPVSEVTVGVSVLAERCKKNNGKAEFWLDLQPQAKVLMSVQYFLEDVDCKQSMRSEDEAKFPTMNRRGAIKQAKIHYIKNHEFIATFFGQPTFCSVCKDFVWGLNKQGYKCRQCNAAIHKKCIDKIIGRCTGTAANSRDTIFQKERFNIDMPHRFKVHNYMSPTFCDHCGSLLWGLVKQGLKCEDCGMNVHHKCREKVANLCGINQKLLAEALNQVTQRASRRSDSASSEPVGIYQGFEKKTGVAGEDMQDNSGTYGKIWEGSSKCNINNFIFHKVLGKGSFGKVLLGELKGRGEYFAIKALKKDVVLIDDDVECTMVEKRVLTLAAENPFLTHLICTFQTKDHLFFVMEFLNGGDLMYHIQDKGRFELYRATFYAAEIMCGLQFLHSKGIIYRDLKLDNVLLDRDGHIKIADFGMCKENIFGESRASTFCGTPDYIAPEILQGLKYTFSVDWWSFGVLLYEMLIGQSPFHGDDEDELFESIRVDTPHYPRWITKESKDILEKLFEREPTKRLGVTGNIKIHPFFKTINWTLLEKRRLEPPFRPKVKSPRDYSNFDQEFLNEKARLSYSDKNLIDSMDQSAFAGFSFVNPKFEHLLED
PLK2, sequence (Q9NYY3 whole entry): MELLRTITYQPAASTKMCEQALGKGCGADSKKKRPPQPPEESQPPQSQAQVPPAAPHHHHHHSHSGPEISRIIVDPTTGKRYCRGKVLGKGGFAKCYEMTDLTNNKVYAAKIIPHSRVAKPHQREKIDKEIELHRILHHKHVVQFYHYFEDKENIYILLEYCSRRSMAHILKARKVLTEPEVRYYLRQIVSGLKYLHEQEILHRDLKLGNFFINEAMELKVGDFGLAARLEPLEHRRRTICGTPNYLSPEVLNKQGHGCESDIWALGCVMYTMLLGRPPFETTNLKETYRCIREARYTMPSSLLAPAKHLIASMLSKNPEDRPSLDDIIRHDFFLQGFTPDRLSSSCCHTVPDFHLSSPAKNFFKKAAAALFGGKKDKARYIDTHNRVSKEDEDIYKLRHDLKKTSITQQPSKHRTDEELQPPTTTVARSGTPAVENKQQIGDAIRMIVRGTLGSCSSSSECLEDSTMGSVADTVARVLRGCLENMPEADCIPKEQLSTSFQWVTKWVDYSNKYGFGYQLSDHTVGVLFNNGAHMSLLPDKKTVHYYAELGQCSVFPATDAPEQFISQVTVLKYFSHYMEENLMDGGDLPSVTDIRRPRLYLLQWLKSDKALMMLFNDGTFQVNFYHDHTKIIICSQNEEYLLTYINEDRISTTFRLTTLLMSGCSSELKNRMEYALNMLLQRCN
AURKB, sequence (Q96GD4 whole entry): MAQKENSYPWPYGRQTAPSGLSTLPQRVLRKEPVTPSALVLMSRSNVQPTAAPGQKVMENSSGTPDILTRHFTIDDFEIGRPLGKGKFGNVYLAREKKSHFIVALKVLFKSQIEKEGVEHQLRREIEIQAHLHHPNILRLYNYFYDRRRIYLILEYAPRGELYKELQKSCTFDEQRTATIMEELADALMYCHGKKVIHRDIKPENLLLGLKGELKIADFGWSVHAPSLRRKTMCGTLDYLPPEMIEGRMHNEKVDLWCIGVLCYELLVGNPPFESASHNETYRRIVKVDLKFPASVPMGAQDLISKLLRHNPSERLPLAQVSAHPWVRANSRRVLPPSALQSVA
CSK1E, sequence (P49674 whole entry): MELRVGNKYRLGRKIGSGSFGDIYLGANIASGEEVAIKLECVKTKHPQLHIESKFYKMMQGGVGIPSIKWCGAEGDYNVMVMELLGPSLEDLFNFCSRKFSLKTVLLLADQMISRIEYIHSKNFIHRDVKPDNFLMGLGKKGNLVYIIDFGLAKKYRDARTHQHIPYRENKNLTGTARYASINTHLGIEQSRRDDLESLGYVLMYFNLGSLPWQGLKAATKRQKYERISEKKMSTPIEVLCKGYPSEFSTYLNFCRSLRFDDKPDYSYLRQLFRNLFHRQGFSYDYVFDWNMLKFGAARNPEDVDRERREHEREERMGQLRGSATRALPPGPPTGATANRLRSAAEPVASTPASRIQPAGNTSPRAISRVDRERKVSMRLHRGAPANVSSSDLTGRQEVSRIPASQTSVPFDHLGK
RSK2, sequence (P51812 whole entry): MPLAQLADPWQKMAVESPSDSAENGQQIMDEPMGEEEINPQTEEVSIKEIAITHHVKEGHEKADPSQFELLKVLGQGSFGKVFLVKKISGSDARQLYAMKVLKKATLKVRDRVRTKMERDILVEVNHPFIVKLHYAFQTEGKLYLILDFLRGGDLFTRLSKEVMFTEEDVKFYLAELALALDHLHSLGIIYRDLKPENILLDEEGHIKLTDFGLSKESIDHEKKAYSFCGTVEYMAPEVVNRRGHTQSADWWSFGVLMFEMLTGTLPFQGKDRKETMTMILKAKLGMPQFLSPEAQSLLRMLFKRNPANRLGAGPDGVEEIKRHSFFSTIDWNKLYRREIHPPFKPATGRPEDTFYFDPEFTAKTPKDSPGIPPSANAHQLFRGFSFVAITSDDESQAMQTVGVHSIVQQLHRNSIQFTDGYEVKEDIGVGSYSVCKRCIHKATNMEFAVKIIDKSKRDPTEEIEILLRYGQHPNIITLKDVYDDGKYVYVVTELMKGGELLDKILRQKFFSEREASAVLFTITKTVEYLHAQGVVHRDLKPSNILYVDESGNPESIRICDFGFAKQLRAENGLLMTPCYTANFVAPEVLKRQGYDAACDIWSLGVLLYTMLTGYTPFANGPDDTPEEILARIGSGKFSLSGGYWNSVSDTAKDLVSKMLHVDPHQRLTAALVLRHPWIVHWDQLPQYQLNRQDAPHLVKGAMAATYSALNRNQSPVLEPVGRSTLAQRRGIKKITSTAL
STK33, sequence (Q9BYT3 whole entry): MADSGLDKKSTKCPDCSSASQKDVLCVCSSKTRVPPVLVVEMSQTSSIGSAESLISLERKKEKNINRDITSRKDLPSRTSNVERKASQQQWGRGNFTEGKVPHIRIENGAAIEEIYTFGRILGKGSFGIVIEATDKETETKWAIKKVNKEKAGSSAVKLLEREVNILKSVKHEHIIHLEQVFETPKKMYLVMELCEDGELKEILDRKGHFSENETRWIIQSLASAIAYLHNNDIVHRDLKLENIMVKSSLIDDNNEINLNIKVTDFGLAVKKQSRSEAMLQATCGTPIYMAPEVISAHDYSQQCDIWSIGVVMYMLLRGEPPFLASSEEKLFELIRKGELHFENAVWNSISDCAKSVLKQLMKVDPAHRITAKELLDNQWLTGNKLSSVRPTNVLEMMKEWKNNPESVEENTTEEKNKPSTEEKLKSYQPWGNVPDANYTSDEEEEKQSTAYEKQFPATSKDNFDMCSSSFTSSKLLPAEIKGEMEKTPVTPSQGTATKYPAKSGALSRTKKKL
AKT3, sequence (Q9Y243 whole entry): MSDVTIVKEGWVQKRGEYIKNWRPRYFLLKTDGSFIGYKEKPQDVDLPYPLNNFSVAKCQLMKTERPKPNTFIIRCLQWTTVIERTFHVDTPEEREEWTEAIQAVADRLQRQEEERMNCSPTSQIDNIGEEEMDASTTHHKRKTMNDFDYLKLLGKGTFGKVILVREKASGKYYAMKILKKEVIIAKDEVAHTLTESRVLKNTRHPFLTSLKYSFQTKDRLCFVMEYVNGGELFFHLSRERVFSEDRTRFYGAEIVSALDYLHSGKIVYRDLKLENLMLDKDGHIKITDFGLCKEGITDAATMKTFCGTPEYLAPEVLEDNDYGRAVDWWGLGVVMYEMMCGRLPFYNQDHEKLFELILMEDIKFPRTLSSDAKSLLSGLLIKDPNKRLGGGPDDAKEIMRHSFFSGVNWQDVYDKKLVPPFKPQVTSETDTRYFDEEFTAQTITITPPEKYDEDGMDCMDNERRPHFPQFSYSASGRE
STK25, sequence (O00506 whole entry): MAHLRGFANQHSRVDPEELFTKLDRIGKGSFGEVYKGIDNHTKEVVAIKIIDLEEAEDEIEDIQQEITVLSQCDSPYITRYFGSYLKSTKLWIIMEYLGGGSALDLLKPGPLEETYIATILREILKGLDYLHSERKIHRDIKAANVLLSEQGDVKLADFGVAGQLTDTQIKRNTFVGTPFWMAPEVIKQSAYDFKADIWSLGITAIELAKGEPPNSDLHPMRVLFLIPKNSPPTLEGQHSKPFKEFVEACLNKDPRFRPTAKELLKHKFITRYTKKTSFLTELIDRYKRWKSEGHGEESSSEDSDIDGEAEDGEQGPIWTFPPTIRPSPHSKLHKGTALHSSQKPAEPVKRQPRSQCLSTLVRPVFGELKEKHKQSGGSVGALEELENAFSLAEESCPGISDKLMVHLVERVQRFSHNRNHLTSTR

For `c1ccc2c(CNNc3ncnc4sc5c(c34)CCCC5)c[nH]c2c1` [B32B3], the IC50 (AKT3) was greater than 10 µM, the IC50 (AURKB) was greater than 10 µM and the IC50 (CDK2) was greater than 10 µM. For the same compound, the IC50 (CHK2) was greater than 10 µM, the IC50 (CSK1E) was greater than 10 µM and the IC50 (EEF2K) was greater than 10 µM. It also gave an IC50 (PRKCD) greater than 10 µM, an IC50 (PLK2) greater than 10 µM and an IC50 (RSK2) of 8.6 µM. The IC50 (STK25) was greater than 10 µM, the IC50 (STK33) was greater than 10 µM and the “Effect on cell proliferation / cell growth” value (DU145 cells) was “inhibition of cell proliferation”. For the same compound, the “Expression of VprBP target genes” value [1] was “higher expression of VprBP target genes”.
